{"source": "EPA's CvTdb concentration-time database", "key": {"Rat [1]": {"system": "Rat", "assay": "concentration in brain after dosing", "settings": "0.5 h; dosed: Potassium Perfluorobutane Sulfonate; 20 mg/kg; oral; Female; Harlan Sprague Dawley"}, "Rat [2]": {"system": "Rat", "assay": "concentration in plasma after dosing", "settings": "dosed: Potassium Perfluorobutane Sulfonate, 4 mg/kg, oral, Male, Harlan Sprague Dawley"}, "Rat [3]": {"system": "Rat", "assay": "concentration in kidney after dosing", "settings": "3 h; dosed: Potassium Perfluorobutane Sulfonate; 20 mg/kg; oral; Male; Harlan Sprague Dawley"}, "Rat [4]": {"system": "Rat", "assay": "concentration in plasma after dosing", "settings": "dosed: Fluorotelomer alcohol 8+2, 12 mg/kg, oral, Male, Harlan Sprague Dawley"}, "Rat [5]": {"system": "Rat", "assay": "concentration in liver after dosing", "settings": "192 h; dosed: Perfluorooctanoic acid; 12 mg/kg; oral; Male; Harlan Sprague Dawley"}, "Mouse [6]": {"system": "Mouse", "assay": "concentration in plasma after dosing", "settings": "10 min; dosed: 2-Hydroxy-4-methoxybenzophenone; 500 mg/kg; oral; Female; B6C3F1"}, "Mouse [7]": {"system": "Mouse", "assay": "concentration in plasma after dosing", "settings": "0.25 h; dosed: 2-Hydroxy-4-methoxybenzophenone; 50 mg/kg; iv; Male; B6C3F1"}, "Rat [8]": {"system": "Rat", "assay": "concentration in plasma after dosing", "settings": "0.25 h; dosed: 2-Hydroxy-4-methoxybenzophenone; 500 mg/kg; oral; Female; F344"}, "Rat [9]": {"system": "Rat", "assay": "concentration in plasma after dosing", "settings": "dosed: 2-Hydroxy-4-methoxybenzophenone, 250 mg/kg, oral, Female, F344"}, "Mouse [10]": {"system": "Mouse", "assay": "concentration in plasma after dosing", "settings": "dosed: 2-Hydroxy-4-methoxybenzophenone, 100 mg/kg, oral, Male, B6C3F1"}, "Mouse [11]": {"system": "Mouse", "assay": "concentration in plasma after dosing", "settings": "10 min; dosed: 2-Hydroxy-4-methoxybenzophenone; 250 mg/kg; oral; Male; B6C3F1"}, "Rat [12]": {"system": "Rat", "assay": "concentration in plasma after dosing", "settings": "dosed: Nitrite, 80 mg/kg, oral, Female, F344"}, "Rat [13]": {"system": "Rat", "assay": "concentration in plasma after dosing", "settings": "dosed: Nitrite, 80 mg/kg, oral, Female, F344", "remark": "listed apart in the source"}, "Rat [14]": {"system": "Rat", "assay": "concentration in plasma after dosing", "settings": "dosed: Nitrite, 20 mg/kg, iv, Male, F344"}}, "data": [{"smiles": "O=S(=O)([O-])C(F)(F)C(F)(F)C(F)(F)C(F)(F)F.[K+]", "note": "[Potassium Perfluorobutane Sulfonate]", "values": [{"measurement": "concentration in brain", "setting": "Rat [1]", "result": 518, "unit": "ng/g"}, {"measurement": "concentration in plasma", "setting": "Rat [2]; 1 h", "result": 14800, "unit": "ng/mL"}, {"measurement": "concentration in plasma", "setting": "Rat [2]; 24 h", "result": 603, "unit": "ng/mL"}, {"measurement": "concentration in kidney", "setting": "Rat [3]", "result": 27100, "unit": "ng/g"}]}, {"smiles": "O=C(O)C(F)(F)C(F)(F)C(F)(F)C(F)(F)C(F)(F)C(F)(F)C(F)(F)F", "note": "[Perfluorooctanoic acid]", "values": [{"measurement": "concentration in plasma", "setting": "Rat [4]; 0.5 h", "result": 108, "unit": "ng/mL"}, {"measurement": "concentration in plasma", "setting": "Rat [4]; 9 h", "result": 851, "unit": "ng/mL"}, {"measurement": "concentration in liver", "setting": "Rat [5]", "result": 51800, "unit": "ng/g"}]}, {"smiles": "COc1ccc(C(=O)c2ccccc2)c(O)c1", "note": "[2-Hydroxy-4-methoxybenzophenone]", "values": [{"measurement": "concentration in plasma", "setting": "Mouse [6]", "result": 687, "unit": "ng/mL"}, {"measurement": "concentration in plasma", "setting": "Mouse [7]", "result": 7110, "unit": "ng/mL"}, {"measurement": "concentration in plasma", "setting": "Rat [8]", "result": 619, "unit": "ng/mL"}, {"measurement": "concentration in plasma", "setting": "Rat [9]; 10 min", "result": 13, "unit": "ng/mL"}, {"measurement": "concentration in plasma", "setting": "Rat [9]; 3 h", "result": 81.6, "unit": "ng/mL"}, {"measurement": "concentration in plasma", "setting": "Mouse [10]; 2.5 min", "result": 26.8, "unit": "ng/mL"}, {"measurement": "concentration in plasma", "setting": "Mouse [10]; 10 min", "result": 39.6, "unit": "ng/mL"}, {"measurement": "concentration in plasma", "setting": "Mouse [10]; 0.25 h", "result": 64.6, "unit": "ng/mL"}, {"measurement": "concentration in plasma", "setting": "Mouse [10]; 2 h", "result": 21.1, "unit": "ng/mL"}, {"measurement": "concentration in plasma", "setting": "Mouse [10]; 3 h", "result": 20, "unit": "ng/mL"}, {"measurement": "concentration in plasma", "setting": "Mouse [11]", "result": 148, "unit": "ng/mL"}]}, {"smiles": "O=N[O-]", "note": "[Nitrite]", "values": [{"measurement": "concentration in plasma", "setting": "Rat [12]; 10 min", "result": 24800, "unit": "ng/mL"}, {"measurement": "concentration in plasma", "setting": "Rat [12]; 6 h", "result": 1800, "unit": "ng/mL"}, {"measurement": "concentration in plasma", "setting": "Rat [13]; 1 h", "result": 8100, "unit": "ng/mL"}, {"measurement": "concentration in plasma", "setting": "Rat [13]; 2 h", "result": 6800, "unit": "ng/mL"}, {"measurement": "concentration in plasma", "setting": "Rat [14]; 2 min", "result": 14300, "unit": "ng/mL"}, {"measurement": "concentration in plasma", "setting": "Rat [14]; 0.75 h", "result": 3400, "unit": "ng/mL"}]}]}
